Where a name gives a salt, the structure may show the parent alone.
Key:
[1] = target: human RORγt ligand binding domain (RORγt LBD) (Homo sapiens (Human), UniProt P51449); assay: RORγt ThermoFluor assay (thermal shift, binding affinity); settings: estimated from thermal shift concentration response
Description: This approach is applicable to a wide variety of systems, and rigorous in theoretical interpretation through quantitation of equilibrium binding constants (KD).
The shift in the melting point described as a ΔTm is proportional to the concentration and affinity of the ligand.
ThermoFluor® experiments were carried out using instruments owned by Janssen Research and Discovery, L.L.C. through its acquisition of 3-Dimensional Pharmaceuticals, Inc. 1,8-ANS (Invitrogen) was used as a fluorescent dye. Protein and compound solutions are dispensed into black 384-well polypropylene PCR microplates (Abgene) and overlayed with silicone oil (1 μL, Fluka, type DC 200) to prevent evaporation.
Bar-coded assay plates are robotically loaded onto a thermostatically controlled PCR-type thermal block and then heated at a typical ramp-rate of 1° C./min for all experiments. Fluorescence was measured by continuous illumination with UV light (Hamamatsu LC6) supplied via fiber optic and filtered through a band-pass filter (380-400 nm; >60D cutoff). Fluorescence emission of the entire 384-well plate was detected by measuring light intensity using a CCD camera (Sensys, Roper Scientific) filtered to detect 500±25 nm, resulting in simultaneous and independent readings of all 384 wells. Images were collected at each temperature, and the sum of the pixel intensity in a given area of the assay plate was recorded versus temperature. Reference wells contained RORγt without compounds, and the assay conditions were as follows: • 0.065 mg/mL RORγt • 60 μM 1,8-ANS • 100 mM Hepes, pH 7.0 • 10 mM NaCl • 2.5 mM GSH • 0.002% Tween-20
Project compounds were arranged in a pre-dosed mother plate (Greiner Bio-one) wherein compounds are serially diluted in 100% DMSO by 1:2 from a high concentration of 10 mM over 12 columns within a series (column 12 is a reference well containing DMSO, no compound). The compounds were robotically dispensed directly into assay plates (1x=[…]) using a Hummingbird capillary liquid handling instrument (Digilab). Following compound dispense, protein and dye in buffer was added to achieve the final assay volume of 3 μL, followed by 1 μL of silicone oil.

[2] = target: human RORγt LBD (Homo sapiens (Human), UniProt P51449); assay: RORγt reporter assay (GAL4-RORγt LBD luciferase, HEK293T cells); assay type: cell-based; settings: for IC50: HEK293T cells, 24 hours compound treatment; for inhibition at 6 µM: HEK-293T, read-out: RORγt reporter Assay, % inhibition @ 6 μM, 6 μM, HEK293T cells
Chain of human RORγt LBD (P51449 258-518): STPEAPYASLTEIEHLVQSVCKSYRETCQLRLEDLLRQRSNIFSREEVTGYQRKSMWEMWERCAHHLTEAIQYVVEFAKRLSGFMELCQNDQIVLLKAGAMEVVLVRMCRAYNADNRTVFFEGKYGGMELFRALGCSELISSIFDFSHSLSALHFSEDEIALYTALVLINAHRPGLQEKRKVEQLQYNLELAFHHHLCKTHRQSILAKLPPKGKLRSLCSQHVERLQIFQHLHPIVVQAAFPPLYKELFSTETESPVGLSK

[3] = test system: IL-17 production by CD4 T cells; assay: Human Th17 assay; assay type: cell-based; settings: Homo sapiens, CD4+ T, 72 h, IL-17 in supernatant after 3 days, human CD4+ T cells under Th17 differentiation
From the text: The human Th17 assay tests the effect of RORγt modulatory compounds on IL-17 production by CD4 T cells under conditions which favor Th17 differentiation.
Total CD4^+ T cells were isolated from the peripheral blood mononuclear cells (PBMC) of healthy donors using a CD4^+ T cell isolation kit II, following the manufacturer's instructions (Miltenyi Biotec). Cells were resuspended in a medium of RPMI-1640 supplemented with 10% fetal bovine serum, penicillin, streptomycin, glutamate, and β-mercaptoethanol and were added to 96-well plates at 1.5×10^5 per 100 μL per well. 50 μL of compound at titrated concentrations in DMSO were added into each well at final DMSO concentration at 0.2%. Cells were incubated for 1 hour, then 50 μL of Th17 cell differentiation medium was added to each well. The final concentrations of antibodies and cytokines (R&D Systems) in differentiation medium were: 3×10^6/mL anti-CD3/CD28 beads (prepared using human T cell activation/expansion kit, Miltenyi Biotec), 10 μg/mL anti-IL4, 10 μg/mL anti-IFNγ, 10 ng/mL IL113, 10 ng/mL IL23, 50 ng/mL IL6, 3 ng/mL TGFβ and 20 U/mL IL2. Cells were cultured at 37° C. and 5% CO2 for 3 days. Supernatants were collected and the accumulated IL-17 in culture was measured by using MULTI-SPOT® Cytokine Plate following manufacture's instruction (Meso Scale Discovery). The plate was read using Sector Imager 6000, and IL-17 concentration was extrapolated from the standard curve. The IC50s were determined by GraphPad.

Chain of human RORγt ligand binding domain (RORγt LBD) (P51449 other isoform, or with tags, fused parts or gaps): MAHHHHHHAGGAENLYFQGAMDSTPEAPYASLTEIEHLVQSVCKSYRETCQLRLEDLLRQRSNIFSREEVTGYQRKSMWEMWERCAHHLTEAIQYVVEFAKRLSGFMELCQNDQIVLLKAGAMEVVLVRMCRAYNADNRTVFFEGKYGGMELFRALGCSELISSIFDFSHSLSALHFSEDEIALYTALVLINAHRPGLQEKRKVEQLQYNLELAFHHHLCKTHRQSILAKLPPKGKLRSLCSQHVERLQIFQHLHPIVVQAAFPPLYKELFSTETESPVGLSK

Kd [1] [µM]	IC50 [2] [µM]	inhibition at 6 µM [2] [%]	IC50 [3] [µM]	SMILES
0.059	0.12	96	0.2	CCN(CC)c1nc2ccc(C(O)(c3ccc(Cl)cc3)c3cncn3C)cc2c(Cl)c1Oc1ccccc1 (stereo not shown) [Example 3a, (4-Chloro-2-(diethylamino)-3-phenoxyquinolin-6-yl)(4-chlorophenyl)(1-methyl-1H-imidazol-5-yl)methanol]
0.031	0.36	94	0.1	CN(C)c1nc2ccc(C(O)(c3ccc(Cl)cc3)c3cncn3C)cc2c(Cl)c1Oc1ccccc1 (stereo not shown) [Example 16, (4-Chloro-2-(dimethylamino)-3-phenoxyquinolin-6-yl)(4-chlorophenyl)(1-methyl-1H-imidazol-5-yl)methanol]
0.0057	0.11	97	0.04	Cn1cncc1C(O)(c1ccc(Cl)cc1)c1ccc2nc(C#N)c(Oc3ccccc3)c(C#N)c2c1 (stereo not shown) [Example 20, 6-((4-chlorophenyl)(hydroxy)(1-methyl-1H-imidazol-5-yl)methyl)-3-phenoxyquinoline-2,4-dicarbonitrile.TFA]
0.032	0.089	89	0.16	CCOc1nc2ccc(C(O)(c3cccnc3)c3cccc(Cl)c3)cc2c(Cl)c1N(C)c1ccccc1 (stereo not shown) [Example 36, (4-Chloro-2-ethoxy-3-(methyl(phenyl)amino)quinolin-6-yl)(3-chlorophenyl) (pyridin-3-yl)methanol.TFA]
0.27	0.81	91	–	CCN(CC)c1nc2ccc(C(O)(c3ccc(Cl)cc3)c3cncn3C)cc2c(Cl)c1Nc1ccccc1 (stereo not shown) [Example 45, (4-Chloro-2-(diethylamino)-3-(phenylamino)quinolin-6-yl)(4-chlorophenyl)(1-methyl-1H-imidazol-5-yl)methanol.TFA]

Reference: patent publication US9303015B2, “Heteroaryl linked quinolinyl modulators of RORγt” (Janssen Pharmaceutica NV, priority 2012, dated 2016)
